Results taken from US20230045737A1, “SUBSTITUTED ISOINDOLINONES AS MODULATORS OF CEREBLON-MEDIATED NEO-SUBSTRATE RECRUITMENT” (Vividion Therapeutics, Inc., priority 2018, published 2023).

target: CRBN-DDB1 (Homo sapiens, UniProt Q96SW2); assay: CRBN Fluorescence Polarization Assay with BODIPY-IMid Tracer; format: binding; design: unit not given here; conditions: competition with 30 nM BODIPY-IMiD tracer for 500 nM CRBN-DDB1, 3-fold serial dilution
Description: Promega assay was used to compare bifunctional ligands of the present invention to compete with IMiDs tracer binding to CRBN.
25 uM BODIPY-IMiD tracer (aliquots from Promega 160 uM stock solution)
Buffer: 100 mM Tris pH7.5, 150 mM NaCl, no DTT
Plates: PCR plate 96-well, Black 384-well
384-well plate 20 uL total volume
10 uL of CRBN-DDB1, BODIPY-IMiD added to 10 uL of ligand
A full 384-well assay plate was used to test bifunctional compounds with and without protein, Pomalidomide used as a control. Two 96-well PCR plates were prepared as follows: • 1. Plate 1 • a. To wells A1-A11 on a 96-well PCR plate 100 uM bifunctional compound was added to 40 uL total volume • i. 38 uL of buffer was added • ii. 2 uL was added of 2 mM bifunctional or IMiD compound in DMSO or 2 uL of 0.2 mM for CC220 analogs • b. To well A12 Pomalidomide was added as control • i. 38 uL buffer was added • ii. 2 uL of 2 mM Pomalidomide in DMSO was added • 2. Plate 2 • a. To wells A1-A10 on a 96-well PCR plate 100 uM bifunctional compound was added to 40 uL total volume • i. 38 uL of buffer was added • ii. 2 uL of 2 mM bifunctional compound in DMSO was added • b. To well A11 CC220 control was added • i. 38 uL buffer added • ii. 2 uL of 0.2 mM for CC220 was added • c. To well A12 DMSO control was added • i. Added buffer to 38 uL • ii. Added 2 uL of DMSO • 3. Prepared 7 mL of Buffer with 5% DMSO for serial dilution • a. 26.67 uL to rows B-H on 96-well plate • 4. Serial dilutions of samples in row A1 3-fold • a. 13.3 uL of A1 added to 26.67 uL in A2 • 5. Added 10 uL to 384-well plate • a. Added A1 from Plate 1 to wells A1 and A2 on 384-well plate (top half of 384-well plate) • b. Added A1 from Plate 2 to wells I1 and I2 on 384-well plate ([…] of 384-well plate)
A preparation was made of 500 nM CRBN-DDB1, 30 nM IMiD complex. To 4 mL of the prepared 500 nM CRBN-DDB1, 30 nM BODIPY-IMiD was added 47.6 uL of 46 uM CRBN-DDB1, 3.752 mL of Buffer (4 additions of 938 uL), 200 uL of DMSO, and 4.8 uL of 25 uM BODIPY IMiD stock. This incubated at room temperature for 10 minutes and then 10 uL was added to all wells on 384-well plate except wells M23-24, N23-24, O23-24, P23-24. Gain Control samples were then made consisting of 950 uL of Buffer, 50 uL of DMSO, 1.2 uL of 25 uM BODIPY IMiD stock, and 10 uL was added to wells M23-24, N23-24, O23-24, P23-24.

Chain of CRBN-DDB1 (Q96SW2 whole entry): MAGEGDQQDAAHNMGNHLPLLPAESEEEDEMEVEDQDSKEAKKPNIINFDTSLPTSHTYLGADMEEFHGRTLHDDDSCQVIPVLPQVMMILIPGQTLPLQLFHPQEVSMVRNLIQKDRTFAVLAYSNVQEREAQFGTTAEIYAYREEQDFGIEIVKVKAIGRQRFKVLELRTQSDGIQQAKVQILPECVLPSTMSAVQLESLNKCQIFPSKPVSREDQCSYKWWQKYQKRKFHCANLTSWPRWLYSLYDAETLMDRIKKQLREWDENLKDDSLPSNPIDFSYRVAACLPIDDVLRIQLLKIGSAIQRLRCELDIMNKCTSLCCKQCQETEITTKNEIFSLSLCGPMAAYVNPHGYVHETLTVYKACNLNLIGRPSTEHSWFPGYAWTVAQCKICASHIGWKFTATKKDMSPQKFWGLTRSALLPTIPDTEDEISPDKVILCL
Chain of CRBN-DDB1 (Q16531 whole entry partner): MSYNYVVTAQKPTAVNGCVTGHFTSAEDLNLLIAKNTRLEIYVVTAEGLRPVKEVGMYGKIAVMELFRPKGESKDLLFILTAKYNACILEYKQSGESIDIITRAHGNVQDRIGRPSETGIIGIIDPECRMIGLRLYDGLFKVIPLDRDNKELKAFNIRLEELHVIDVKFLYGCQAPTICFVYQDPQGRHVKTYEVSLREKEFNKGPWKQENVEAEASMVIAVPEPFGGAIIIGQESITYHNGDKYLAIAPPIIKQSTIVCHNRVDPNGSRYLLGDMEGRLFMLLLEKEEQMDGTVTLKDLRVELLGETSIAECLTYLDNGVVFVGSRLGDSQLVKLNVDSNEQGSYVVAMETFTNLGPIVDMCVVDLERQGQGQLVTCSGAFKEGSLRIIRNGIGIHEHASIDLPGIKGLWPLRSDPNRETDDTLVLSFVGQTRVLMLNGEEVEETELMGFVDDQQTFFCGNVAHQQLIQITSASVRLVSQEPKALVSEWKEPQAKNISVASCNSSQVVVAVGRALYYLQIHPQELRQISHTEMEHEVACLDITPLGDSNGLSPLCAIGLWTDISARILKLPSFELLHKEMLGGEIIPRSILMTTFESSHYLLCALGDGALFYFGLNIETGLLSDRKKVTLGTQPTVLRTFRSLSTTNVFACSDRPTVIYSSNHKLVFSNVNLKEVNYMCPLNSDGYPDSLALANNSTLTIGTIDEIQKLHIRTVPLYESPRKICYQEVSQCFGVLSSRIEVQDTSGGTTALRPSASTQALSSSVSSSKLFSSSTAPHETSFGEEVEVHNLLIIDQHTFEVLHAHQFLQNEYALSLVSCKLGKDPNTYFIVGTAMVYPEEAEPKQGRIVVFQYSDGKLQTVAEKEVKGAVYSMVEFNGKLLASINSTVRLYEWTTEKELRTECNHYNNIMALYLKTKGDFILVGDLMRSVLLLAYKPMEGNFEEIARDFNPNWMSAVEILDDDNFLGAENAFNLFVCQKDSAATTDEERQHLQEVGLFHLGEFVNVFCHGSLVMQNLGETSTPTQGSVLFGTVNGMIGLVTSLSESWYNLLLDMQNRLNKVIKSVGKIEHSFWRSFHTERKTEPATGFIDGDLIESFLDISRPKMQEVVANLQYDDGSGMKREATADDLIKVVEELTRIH

Row | SMILES | Result
1 | O=C1CC[C@@H](N2Cc3c(OCc4ccc(CN5CCOCC5)cc4)cccc3C2=O)C(=O)N1 | 0.16
2 | O=C1CCC(N2Cc3c(OCCO)cccc3C2=O)C(=O)N1 (stereo not drawn) [3-(4-(2-hydroxyethoxy)-1-oxoisoindolin-2-yl)piperidine-2,6-dione] | 0.93
3 | O=C1CCC(N2Cc3c(OCc4ccc(Cn5ccnc5)cc4)cccc3C2=O)C(=O)N1 (stereo not drawn) [3-(4-((4-((1H-imidazol-1-yl)methyl)benzyl)oxy)-1-oxoisoindolin-2-yl)piperidine-2,6-dione] | 0.16
4 | O=C1CCC(N2Cc3c(OCc4cc(CN5CCOCC5)ccn4)cccc3C2=O)C(=O)N1 (stereo not drawn) [3-(4-((4-(morpholinomethyl)pyridin-2-yl)methoxy)-1-oxoisoindolin-2-yl)piperidine-2,6-dione] | 0.94
5 | COc1ccc2c(c1)C(=O)N(C1CCC(=O)NC1=O)C2 (stereo not drawn) [3-(6-methoxy-1-oxoisoindolin-2-yl)piperidine-2,6-dione] | 1.43
6 | O=C1CC[C@H](N2Cc3c(OCc4ccc(Br)cc4)cccc3C2=O)C(=O)N1 [(S)-3-(4-((4-bromobenzyl)oxy)-1-oxoisoindolin-2-yl)piperidine-2,6-dione] | 0.25
7 | O=C1CC[C@H](N2Cc3c(OCc4ccccc4)ccc(Br)c3C2=O)C(=O)N1 [(S)-3-(4-(benzyloxy)-7-bromo-1-oxoisoindolin-2-yl)piperidine-2,6-dione] | 0.1
8 | O=C1CC[C@H](N2Cc3cc(OCc4ccccc4)ccc3C2=O)C(=O)N1 [(S)-3-(5-(benzyloxy)-1-oxoisoindolin-2-yl)piperidine-2,6-dione] | 0.54
9 | Nc1cccc2c1C(=O)N(C1CCC(=O)NC1=O)C2=O (stereo not drawn) [Pomalidomide, pomalidomide, reference compound] | 1.57
10 | COC(=O)C1CCCN(Cc2ccc(COc3cccc4c3CN(C3CCC(=O)NC3=O)C4=O)cc2)C1 (stereo not drawn) [methyl 1-(4-(((2-(2,6-dioxopiperidin-3-yl)-1-oxoisoindolin-4-yl)oxy)methyl)benzyl)piperidine-3-carboxylate] | 0.06
11 | COC(=O)C1CCN(Cc2ccc(COc3cccc4c3CN(C3CCC(=O)NC3=O)C4=O)cc2)CC1 (stereo not drawn) [methyl 1-(4-(((2-(2,6-dioxopiperidin-3-yl)-1-oxoisoindolin-4-yl)oxy)methyl)benzyl)piperidine-4-carboxylate] | 0.05
12 | COC(=O)C1CCN(Cc2ccc(COc3cccc4c3CN(C3CCC(=O)NC3=O)C4=O)cc2)C1 (stereo not drawn) [methyl 1-(4-(((2-(2,6-dioxopiperidin-3-yl)-1-oxoisoindolin-4-yl)oxy)methyl)benzyl)pyrrolidine-3-carboxylate] | 0.14
